Literature values, collected in US20010043957A1, “Lypolytic composition” (priority 2000, published 2001).

Legend:
[1] = group of animals
[2] = per day, most healthy people, caffeine and related methylxanthines

Row | Structure (SMILES) | loss in body weight [1] | amount safely consumed without adverse reactions [2] | loss in body fat [1] [%]
1 | Cn1c(=O)c2c(ncn2C)n(C)c1=O [caffeine] | not significant loss in body weight | up to 200 mg | –
2 | CN[C@@H](C)[C@H](O)c1ccccc1 [ephedrine] | 14% | – | 42
